# Source: patent publication US20260042764A1, “COMPOSITIONS AND METHODS FOR INHIBITION OF KRAS” (TheRas, Inc., priority 2022, published 2026)
# pIC50: −log10 of the molar value.
# Columns and labels:
# GP2d cells (KRAS G12D) = assay: Cell-based pERK HTRF assay in GP2d cell (Biological Example 2); conditions: GP2d, GP2d (KRAS G12D) cells, pERK HTRF; class symbols
# Method in brief: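 HTRF read-out of pERK (excitation 320 nm, emission 615 nm) after lysates sat 4–24 h at room temperature with Eu cryptate and d2 antibodies.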
# [1] = target: T1, Avi-KRAS G12V (1-169) GppNHp/RAF1 RBD-3xFLAG (52-151) (Homo sapiens, UniProt P01116, G12V); assay: Raf1-KRAS G12V-GppNHP disruption HTRF assay (Biological Example 1); assay type: binding; conditions: KRAS G12V, GppNHp-loaded; class symbols
# T1 construct: Avi-KRAS G12V (1-169)
# Method in brief: (§1)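 First, protein mix in Tris pH 7.5 buffer with NaCl, MgCl2, BSA, Tween and 10% DMSO is incubated 1 h at room temperature. Next, reagent mix is added and incubated a further 1 h at room temperature. Finally, HTRF is read and activity normalized to DMSO.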
# SW620 cells (KRAS G12V) = assay: Cell-based pERK HTRF assay in SW620 cell (Biological Example 4); conditions: Homo sapiens, SW-620, SW620 (KRAS G12V) cells, pERK HTRF; class symbols
# Method in brief: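 SW620 cells were treated for 4 h with compound in a 9-point half-log series from 1 μM top (0.25% DMSO), then lysed. Phospho-ERK was detected by HTRF with d2 and Eu cryptate antibodies after 4–24 h at room temperature, read at 615 nm emission.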
# [2] = target: T2, Avi-KRAS G12R (1-169) GppNHp/RAF1 RBD-3xFLAG (52-151) (Homo sapiens, UniProt P01116, G12R); assay: Raf1-KRAS G12R-GppNHP disruption HTRF assay (Biological Example 1); assay type: binding; conditions: KRAS G12R, GppNHp-loaded; class symbols
# T2 construct: Avi-KRAS G12R (1-169)
# Method in brief: as §1
# [3] = target: T3, Avi-KRAS WT (1-169) GppNHp/RAF1 RBD-3xFLAG (52-151) (Homo sapiens, UniProt P01116); assay: Raf1-KRAS WT-GppNHP disruption HTRF assay (Biological Example 1); assay type: binding; conditions: KRAS WT, GppNHp-loaded; class symbols
# T3 construct: Avi-KRAS WT (1-169)
# Method in brief: as §1
# [4] = target: T4, Avi-KRAS G12D (1-169) GppNHp/RAF1 RBD-3xFLAG (52-151) (Homo sapiens, UniProt P01116, G12D); assay: Raf1-KRAS G12D-GppNHP disruption HTRF assay (Biological Example 1); assay type: binding; conditions: KRAS G12D, GppNHp-loaded; class symbols
# T4 construct: Avi-KRAS G12D (1-169)
# Method in brief: as §1
# T2 sequence (P01116 1-169 isoform P01116-2 G12R): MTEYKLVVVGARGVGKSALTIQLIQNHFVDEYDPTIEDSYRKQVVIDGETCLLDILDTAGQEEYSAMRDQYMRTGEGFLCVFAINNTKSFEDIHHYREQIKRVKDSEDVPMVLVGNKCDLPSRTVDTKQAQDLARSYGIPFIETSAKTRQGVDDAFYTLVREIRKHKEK
# T4 sequence (P01116 1-169 isoform P01116-2 G12D): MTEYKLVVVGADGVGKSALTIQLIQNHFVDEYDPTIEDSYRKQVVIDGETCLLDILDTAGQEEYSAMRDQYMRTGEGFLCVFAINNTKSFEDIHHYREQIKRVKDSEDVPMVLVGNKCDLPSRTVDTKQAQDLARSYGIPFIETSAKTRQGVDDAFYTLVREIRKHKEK
# T3 sequence (P01116 1-169 isoform P01116-2): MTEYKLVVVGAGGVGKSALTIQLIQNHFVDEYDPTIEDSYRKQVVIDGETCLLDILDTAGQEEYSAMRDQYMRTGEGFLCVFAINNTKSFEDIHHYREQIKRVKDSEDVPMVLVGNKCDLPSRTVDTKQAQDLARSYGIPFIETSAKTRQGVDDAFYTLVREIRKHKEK
# T1 sequence (P01116 1-169 isoform P01116-2 G12V): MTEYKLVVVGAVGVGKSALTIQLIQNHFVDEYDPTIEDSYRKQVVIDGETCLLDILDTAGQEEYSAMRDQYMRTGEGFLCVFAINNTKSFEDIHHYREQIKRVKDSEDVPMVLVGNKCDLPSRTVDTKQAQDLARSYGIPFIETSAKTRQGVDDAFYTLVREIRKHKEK
Structure (SMILES),pIC50 (GP2d cells (KRAS G12D)),pIC50 [1],pIC50 (SW620 cells (KRAS G12V)),pIC50 [2],pIC50 [3],pIC50 [4]
"CCN(c1nc(OC[C@@]23CCCN2C[C@H](F)C3)nc2c(F)c(-c3ccc(F)c4sc(N)c(C#N)c34)c(C(F)(F)F)cc12)[C@H]1CCN(C(=O)O[C@H]2CCOC2)C1 (atropisomer, axis not shown) [Compound 682]",> 7.00,> 7.00,> 7.00,> 7.00,> 7.00,> 7.00
"CCN(c1nc(OC[C@@]23CCCN2C[C@H](F)C3)nc2c(F)c(-c3ccc(F)c4sc(N)c(C#N)c34)c(C(F)(F)F)cc12)[C@H]1CCN(C(=O)OC2CCOCC2)C1 (atropisomer, axis not shown) [Compound 684]",> 7.00,> 7.00,> 7.00,> 7.00,> 7.00,> 7.00
"CCOC(=O)N1CC[C@H](N(CC)c2nc(OC[C@@]34CCCN3C[C@H](F)C4)nc3c(F)c(-c4ccc(F)c5sc(N)c(C#N)c45)c(C(F)(F)F)cc23)C1 (atropisomer, axis not shown) [Compound 686]",> 7.00,> 7.00,> 7.00,> 7.00,6.00 to 7.00,> 7.00
"CCN(c1nc(OC[C@@]23CCCN2C[C@H](F)C3)nc2c(F)c(-c3ccc(F)c4sc(N)c(C#N)c34)c(C(F)(F)F)cc12)[C@H]1CCN(C(=O)OCCF)C1 (atropisomer, axis not shown) [Compound 687]",> 7.00,> 7.00,> 7.00,> 7.00,> 7.00,> 7.00
"CCN(c1nc(OC[C@@]23CCCN2C[C@H](F)C3)nc2c(F)c(-c3ccc(F)c4sc(N)c(C#N)c34)c(C(F)(F)F)cc12)[C@H]1CCN(C(=O)OC)[C@@H]1C (atropisomer, axis not shown) [Compound 688]",> 7.00,6.00 to 7.00,> 7.00,> 7.00,6.00 to 7.00,> 7.00
"CCN(c1nc(OC[C@@]23CCCN2C[C@H](F)C3)nc2c(F)c(-c3ccc(F)c4sc(N)c(C#N)c34)c(C(F)(F)F)cc12)[C@H]1CCN(C(=O)[C@@H]2C[C@H]2C)C1 (atropisomer, axis not shown) [Compound 690]",> 7.00,> 7.00,> 7.00,> 7.00,> 7.00,> 7.00
"CCN(c1nc(OC[C@@]23CCCN2C[C@H](F)C3)nc2c(F)c(-c3ccc(F)c4sc(N)c(C#N)c34)c(C(F)(F)F)cc12)[C@H]1CCN(C(=O)[C@@H]2C[C@@H]2F)C1 (atropisomer, axis not shown) [Compound 691]",> 7.00,> 7.00,> 7.00,> 7.00,> 7.00,> 7.00
"CCN(c1nc(OC[C@@]23CCCN2C[C@H](F)C3)nc2c(F)c(-c3ccc(F)c4sc(N)c(C#N)c34)c(C(F)(F)F)cc12)[C@H]1CCN(C(=O)[C@@H]2CC2(F)F)[C@@H]1C (atropisomer, axis not shown) [Compound 693]",> 7.00,> 7.00,> 7.00,> 7.00,> 7.00,> 7.00
"CCN1CC[C@H](N(CC)c2nc(OC[C@@]34CCCN3C[C@H](F)C4)nc3c(F)c(-c4ccc(F)c5sc(N)c(C#N)c45)c(C(F)(F)F)cc23)C1=O (atropisomer, axis not shown) [Compound 694]",> 7.00,6.00 to 7.00,> 7.00,6.00 to 7.00,6.00 to 7.00,> 7.00
"CCN1CC[C@@H](N(CC)c2nc(OC[C@@]34CCCN3C[C@H](F)C4)nc3c(F)c(-c4ccc(F)c5sc(N)c(C#N)c45)c(C(F)(F)F)cc23)C1=O (atropisomer, axis not shown) [Compound 695]",> 7.00,6.00 to 7.00,> 7.00,6.00 to 7.00,6.00 to 7.00,6.00 to 7.00
"CN(Cc1cccnc1)c1nc(OC[C@@]23CCCN2C[C@H](F)C3)nc2c(F)c(-c3ccc(F)c4sc(N)c(C#N)c34)c(C(F)(F)F)cc12 (atropisomer, axis not shown) [Compound 698]",> 7.00,6.00 to 7.00,> 7.00,6.00 to 7.00,6.00 to 7.00,6.00 to 7.00
"CCN1C[C@H](N(CC)c2nc(OC[C@@]34CCCN3C[C@H](F)C4)nc3c(F)c(-c4ccc(F)c5sc(N)c(C#N)c45)c(C(F)(F)F)cc23)CC1=O (atropisomer, axis not shown) [Compound 699]",> 7.00,6.00 to 7.00,> 7.00,6.00 to 7.00,6.00 to 7.00,6.00 to 7.00
"[2H]C([2H])([2H])C([2H])(C(=O)N1CC[C@H](N(CC)c2nc(OC[C@@]34CCCN3C[C@H](F)C4)nc3c(F)c(-c4ccc(F)c5sc(N)c(C#N)c45)c(C(F)(F)F)cc23)C1)C([2H])([2H])[2H] (atropisomer, axis not shown) [Compound 707]",> 7.00,> 7.00,> 7.00,> 7.00,> 7.00,> 7.00
"CCN(c1nc(OC[C@@]23CCCN2C[C@H](F)C3)nc2c(F)c(-c3ccc(F)c4sc(N)c(C#N)c34)c(C(F)(F)F)cc12)[C@H]1CCN(C(=O)c2cnco2)C1 (atropisomer, axis not shown) [Compound 708]",> 7.00,> 7.00,> 7.00,> 7.00,> 7.00,> 7.00
"CCN(c1nc(OC[C@@]23CCCN2C[C@H](F)C3)nc2c(F)c(-c3ccc(F)c4sc(N)c(C#N)c34)c(C(F)(F)F)cc12)[C@H]1CCN(C(=O)[C@@H](C)CF)C1 (atropisomer, axis not shown) [Compound 710]",> 7.00,6.00 to 7.00,> 7.00,> 7.00,> 7.00,> 7.00
"CCN(c1nc(OC[C@@]23CCCN2C[C@H](F)C3)nc2c(F)c(-c3ccc(F)c4sc(N)c(C#N)c34)c(C(F)(F)F)cc12)[C@H]1C[C@@H](COC)N(C(=O)N(C)C)C1 (atropisomer, axis not shown) [Compound 713]",> 7.00,6.00 to 7.00,> 7.00,6.00 to 7.00,6.00 to 7.00,6.00 to 7.00
"CCN(c1nc(OC[C@@]23CCCN2C[C@H](F)C3)nc2c(F)c(-c3ccc(F)c4sc(N)c(C#N)c34)c(C(F)(F)F)cc12)[C@H]1C[C@@H](COC)N(C(=O)OC)C1 (atropisomer, axis not shown) [Compound 714]",> 7.00,6.00 to 7.00,> 7.00,6.00 to 7.00,6.00 to 7.00,6.00 to 7.00
"COC(=O)N1CC[C@H]2[C@@H]1CN2c1nc(OC[C@@]23CCCN2C[C@H](F)C3)nc2c(F)c(-c3ccc(F)c4sc(N)c(C#N)c34)c(C(F)(F)F)cc12 (atropisomer, axis not shown) [Compound 716]",> 7.00,< 5.00,6.00 to 7.00,< 5.00,5.00 to 6.00,5.00 to 6.00
"CCN(c1nc(OC[C@@]23CCCN2C[C@H](F)C3)nc2c(F)c(-c3ccc(F)c4sc(N)c(C#N)c34)c(C(F)(F)F)cc12)[C@H]1C[C@H](COC)N(C(=O)N(C)C)C1 (atropisomer, axis not shown) [Compound 717]",> 7.00,6.00 to 7.00,> 7.00,6.00 to 7.00,6.00 to 7.00,6.00 to 7.00
"CCN(c1nc(OC[C@@]23CCCN2C[C@H](F)C3)nc2c(F)c(-c3ccc(F)c4sc(N)c(C#N)c34)c(C(F)(F)F)cc12)[C@H]1C[C@H](COC)N(C(=O)OC)C1 (atropisomer, axis not shown) [Compound 718]",> 7.00,> 7.00,> 7.00,> 7.00,> 7.00,> 7.00
"CCN(c1nc(OC[C@@]23CCCN2C[C@H](F)C3)nc2c(F)c(-c3ccc(F)c4sc(N)c(C#N)c34)c(C(F)(F)F)cc12)[C@H]1CCN(C(=O)c2cocn2)C1 (atropisomer, axis not shown) [Compound 719]",> 7.00,> 7.00,> 7.00,> 7.00,> 7.00,> 7.00
